Experimental data published in patent publication US8093273B2, “Flavanoids and isoflavanoids for the prevention and treatment of cardiovascular diseases” (Resverlogix Corp., priority 2004, dated 2012).
Read-outs that look alike come from different tables or passages of the source. One block for each molecule: values may come before it.

Key:
hApoA-I transgenic mice = experiment: hApoA-I transgenic mice, oral gavage for 14 days; assay type: in vivo; details: for change in vivo at 10 mg/kg / change in vivo at 30 mg/kg: Mus musculus, po, 336 h, relative to pretreatment, read-out: ApoA-I (% change); for change in vivo at 10 mg/kg: 10 mg/kg BID 14 days; for change in vivo at 30 mg/kg: 30 mg/kg BID 14 days
From the text: To test whether the efficacy of compounds of the invention observed in vitro extended to an in vivo model, transgenic mice carrying multiple copies of the human ApoA-I gene (C57BI/6-tgn(apoa1)1 rub, Jackson Laboratory, Bar Harbor, Me.) were exposed to representative compounds of the invention. The exogenous human ApoA-I gene in these mice enables them to express the human ApoA-I protein under the control of this promoter.
Seven to eight week old male mice, transgenic for human ApoA-I were housed five per cage (10″×20″×8″ with aspen chip bedding) with pelleted Rodent chow [Purina 5001] and water available at all times. After an acclimation period of 1 week, animals were individually identified by numbering on tail and weighed. Mice were pre bled via the retro-orbital plexus, and 150 μl of blood was collected in 1.5 ml Eppendorf tube containing 1 μl of heparin and chilled on ice. Plasma was collected after centrifuging the whole blood at 14000 rpm [TOMY high speed micro-refrigerated centrifuge NTX-150] for 10 minutes at 4° C. and frozen at −80° C. Plasma was analyzed for: human ApoA-I by a human ApoA-I enzyme-linked Immunoassay [Direct Sandwich ELISA Calbiochem Cat#178422, Calbiochem Cat#178452, lot #B9076, Calbiochem Cat #178470 conjugated to Horse Radish Peroxidase (Cedarlane Cat#80220)]; total cholesterol [Ponte scientific reagents: # C7509-STD, #L7580-18, # C7510]; and triglyceride [Pointe Scientific Reagents: # 7532-STD, # L7580-18, #7532]. All samples were measured in triplicates and expressed as mg/dl. Mice were grouped based on the above plasma parameters and having an average body weight of 25 gm.
Two days following pre-bleed, mice were dosed by oral gavage daily for 14 days using a 20 gauge, 11/2″ curved disposable feeding needle [Popper & Sons]; when BID, mice were gavaged morning and afternoon (8 am and 5 pm); when SID mice were gavaged in morning (8 am). Compounds were prepared each day in vehicle. Test article(s), a positive control fenofibrate, and vehicle were dosed at volume of 5 mL/kg of body weight as a suspension (0.1 mL/20 g mouse). Fenofibrate was obtained commercially [SIGMA #F 6020]. Mice weights were recorded on day 1, 4, 7, 10, 12, and 15. On day 15, mice were weighed and fasted for 4 hours, sacrificed by inhalation of CO2 and blood was obtained via cardiac puncture (0.7-1.0 ml). Plasma was collected and frozen at −80° C. Samples were assayed for ApoA-I, total cholesterol, triglyceride and HDL-C by HPLC [Polaris 200 with an auto sampler Prostar 410 from Varian on a Superose 6 10/30 column from Amersham]. Samples were sent for NMR analysis [LipoScience] to identify particle size and subclass for lipoproteins. During necropsy, liver, brown fat, and the whole of small and large intestines were collected, cleaned with cold PBS and frozen at −80° C. for further analysis of compound levels. Variation between studies, in ApoA-I changes, was observed. Therefore, a relative comparison between individual(s) in the study groups was used.
4′-hydroxyflavone (10 mg/kg of body weight), 4-(4-oxo-4H-chromen-2-yl)phenyl nicotinate (Example 71) (10 mg/kg of body weight) and fenofibrate (100 mg/kg of body weight) were BID administered to hApoA-I transgenic mice daily for fourteen days by oral gavage in 0.5% Methylcellulose (w/v)/1% Tween 80 (w/v). Plasma was assayed for ApoA-I (FIG. 3A), HDL cholesterol and total cholesterol (FIG. 3B) and percent weight gain (FIG. 3C).
4′-hydroxyflavone (3 mg/kg of body weight), 4′-hydroxyflavone (10 mg/kg of body weight), 4′-hydroxyflavone (30 mg/kg of body weight), 2-(4-Hydroxy-phenyl)-pyrano[2,3-b]pyridin-4-one (10 mg/kg of body weight), and fenofibrate (100 mg/kg of body weight) were BID administered to hApoA-I transgenic mice daily for fourteen days by oral gavage in 0.5% methylcellulose (w/v)/1% Tween 80 (w/v). In this experiment plasma was assayed for ApoA-I. […]

human ApoA-I promoter [1] = experiment: ApoA-I promoter induction in HepG2 liver cells (pAI.474-Luc luciferase reporter); assay type: cell-based; details: average values at 15 μM, 48 hours incubation
Description: This study determined whether compounds of the invention have an effect on ApoA-I promoter activity expression in HepG2 cells, a liver cell line. Cells were grown under conditions recommended by the ATCC and summarized by Wong.
The promoter region of the gene encoding human ApoA-I was isolated and ligated upstream the structure gene of firefly luciferase to construct a reporter plasmid (pAI.474-Luc). The reporter plasmid, along with pRSV-β-galactosidase (as a control for transfection efficiency), were co-transfected into HepG2 cells. The cells were then incubated in an MEM selection media containing 20% fetal calf serum supplemented with G418 (final concentration: 0.5 mg/mL, Gibco) to give established strains that stably express from the reporter gene. The strains were seeded to a 6-well culture plates and incubated for 48 hours at 37° C. under 5% carbon dioxide. Cells were starved for 24 hrs in MEM selection media containing 0.5% FBS. Then, a solution of the compounds of the invention in DMSO (or other appropriate solvent) was added to the wells at a final concentration of 0 to 100 μM in MEM selection media containing 0.5% FBS.
(§1) After further incubation for 48 hours, the cells were harvested and lysed using Reporter Lysis Buffer (PROMEGA E3971), and 50 μL of luciferase assay reagent (PROMEGA E4550 Luciferase Reporter 1000 assay system) were added to measure luciferase activity with a luminometer (Fluoroskan Ascent FL from Thermo electron Corporation). Luciferase activity was normalized to lysate protein concentrations, measured using Bradford Reagent (Biorad Protein Assay reagent Cat #500-0006).

human ApoA-I promoter [2] = experiment: ApoA-I promoter induction in Caco-2 intestinal cells (pAI.474-Luc luciferase reporter); assay type: cell-based; details: Caco-2 cells, 15 μM, 48 hours incubation, luciferase activity vs control samples
Description: To examine the effects of compounds of the invention to increase ApoA-I expression, Caco-2 cells, an intestinal cell line derived from human epithelial intestinal cells, were grown under conditions recommended by the ATCC and summarized in United States Patent Application Publication No. 20040033480 (“Wong”), incorporated herein by reference.
Briefly, the promoter region of the gene encoding human ApoA-I was isolated and ligated upstream of the firefly luciferase gene to construct the reporter plasmid pAI.474-Luc. This reporter plasmid and pRSV-β-galactosidase (as a control for transfection efficiency) were co-transfected to Caco-2 cells. The Caco-2 cells were then incubated in a MEM selection media containing 20% fetal calf serum supplemented with G418 (final concentration: 0.5 mg/mL, Gibco) to give established strains that stably express from the reporter gene. The strains were seeded in 6-well culture plates and incubated for 48 hours at 37° C. under 5% carbon dioxide. Cells were starved for 24 hrs in MEM selection media containing 0.5% FBS. Then, a solution of a compound of the invention in DMSO or other appropriate solvent was added to the wells at a final concentration of 0 to 100 μM in MEM selection media containing 0.5% FBS.
as §1, with “system) was” for “system) were”, “Reagent (BioRad” for “Reagent (Biorad”, “#500-0006). The luciferase activity of cells treated with various concentrations of test compounds was compared to that of solvent control sample (i.e., solvent without any compound of the present invention added) and untreated control sample.” for “#500-0006).”

Caco-2 permeability = assay type: in vitro ADME, human; details: human
From the text: The Caco-2 cell drug transport model is widely used for screening compounds in drug discovery to assess intestinal transport and predict absorption rates.

[3] = in vitro Caco-2 intestinal transport model, read-out: % Transported Paap
[4] = Table 6 fourth group, Control 3 1.11
[5] = Table 6 third group, Control 3 (F-101) (6.32)

SMILES: O=c1cc(-c2ccc(O)cc2)oc2ncccc12 [2-(4-hydroxy-phenyl)-pyrano[2,3-b]pyridin-4-one]
plasma ApoA-I, net % change over vehicle (hApoA-I transgenic mice; Experiment B, 10 mpk BID oral gavage, two weeks): 3.75%

SMILES: O=c1c(O)c(-c2ccc(O)c(O)c2)oc2cc(O)cc(O)c12 [3,5,7-trihydroxy-2-(3,4-dihydroxyphenyl)-4H-chromen-4-one, reference compound]
ApoA-I Promoter Induction (human ApoA-I promoter [1]): increased

SMILES: O=c1cc(-c2ccc(O)cc2)oc2cccc(O)c12 [4′,5-dihydroxyflavone]
ApoA-I Promoter Induction (human ApoA-I promoter [1]): increased

SMILES: O=C1CC(c2ccc(O)cc2)Oc2cc(O)cc(O)c21 (stereo not shown) [5,7-Dihydroxy-2-(4-hydroxyphenyl)-chroman-4-one]
ApoA-I Promoter Induction (human ApoA-I promoter [2]): increased | ApoA-I Promoter Induction (human ApoA-I promoter [1]): increased

SMILES: COc1ccc2c(=O)cc(-c3ccc(O)cc3)oc2c1 [7-methoxy-2-(4-hydroxyphenyl)-4H-chromen-4-one, reference compound]
Papp (Caco-2 permeability; [3]): 6.92 ×10⁻⁶ cm/s

SMILES: O=c1cc(-c2cc(F)c(O)c(F)c2)oc2ccccc12 [Example 6, 2-(3,5-difluoro-4-hydroxyphenyl)chromen-4-one]
melting point: 275 to 276 °C | Papp (Caco-2 permeability; Caco-2): 0.531 ×10⁻⁶ cm/s

SMILES: Cc1cc(-c2cc(=O)c3ccccc3o2)cc(C)c1O [Example 7, 2-(4-hydroxy-3,5-dimethylphenyl)chromen-4-one]
ApoA-I Promoter Induction (human ApoA-I promoter [2]): increased | melting point: 255 to 256 °C | Papp (Caco-2 permeability; Caco-2): 0.695 ×10⁻⁶ cm/s

SMILES: O=c1cc(-c2ccc(O)cc2)[nH]c2ccccc12 [Example 51, 2-(4-Hydroxy-phenyl)-1H-quinolin-4-one]
change in vivo at 10 mg/kg (hApoA-I transgenic mice; [5]): 32.8% | ApoA-I Promoter Induction (human ApoA-I promoter [2]): no increase

SMILES: CC(=O)Oc1ccc(-c2cc(=O)c3ccccc3o2)cc1 [Example 72, 4-(4-oxo-4H-chromen-2-yl)phenyl acetate]
ApoA-I Promoter Induction (human ApoA-I promoter [2]): increased | Papp (Caco-2 permeability; Caco-2): 2.65 ×10⁻⁶ cm/s

SMILES: O=C(Oc1ccc(C2CC(=O)c3c(OC(=O)c4cccnc4)cc(OC(=O)c4cccnc4)cc3O2)cc1)c1cccnc1 (stereo not shown) [Example 73, 2-(4-(Nicotinoyloxy)phenyl)-4-oxochroman-5,7-diyl dinicotinate]
ApoA-I Promoter Induction (human ApoA-I promoter [1]): no increase

SMILES: CC(C)OC(=O)C(C)(C)Oc1ccc(C(=O)c2ccc(Cl)cc2)cc1 [fenofibrate, reference compound]
liver weight gain normalized to body weight, compared to vehicle (hApoA-I transgenic mice; Experiment A, 100 mg/kg BID, day 15, male mice): significant increase | change in vivo at 30 mg/kg (hApoA-I transgenic mice; [4]): 68.9% | change in vivo at 30 mg/kg (hApoA-I transgenic mice; Table 6 second group, Control 1 3.42): 127% | change in vivo at 30 mg/kg (hApoA-I transgenic mice; Table 6 third group, Control 3 (6.32)): 74.4%

Now from value to molecule, other results behind:

Papp (Caco-2 permeability; [3]): 0.122 ×10⁻⁶ cm/s
SMILES: O=c1cc(-c2ccccc2)oc2cc(O)cc(O)c12 [5,7-Dihydroxy-2-phenyl-4H-chromen-4-one, 5,7-Dihydroxy-2-phenyl-chromen-4-one, reference compound]
ApoA-I Promoter Induction (human ApoA-I promoter [2]): increased

Papp (Caco-2 permeability; [3]): 1.5 ×10⁻⁶ cm/s
SMILES: O=c1cc(-c2ccc(O)cc2)oc2cc(O)cc(O)c12 [5,7-dihydroxy-2-(4-hydroxyphenyl)-4H-chomen-4-one, reference compound]

Papp (Caco-2 permeability; Caco-2): 1.98 ×10⁻⁶ cm/s
SMILES: O=c1cc(-c2ccc(O)cc2)oc2cccnc12 [Example 35, 2-(4-hydroxy-phenyl)-pyrano[3,2-b]pyridin-4-one]
ApoA-I Promoter Induction (human ApoA-I promoter [2]): increase

melting point: 294 to 296 °C
SMILES: O=c1cc(-c2ccc(O)cc2)oc2cnccc12 [Example 36, 2-(4-Hydroxyphenyl)pyrano[2,3-c]pyridin-4-one]
change in vivo at 10 mg/kg (hApoA-I transgenic mice; [4]): 17% | ApoA-I Promoter Induction (human ApoA-I promoter [2]): increased

melting point: 300 to 302 °C | Papp (Caco-2 permeability; Caco-2): 0.596 ×10⁻⁶ cm/s
SMILES: Cc1cc(-c2cc(=O)c3cccnc3o2)ccc1O [Example 38, 2-(4-hydroxy-3-methylphenyl)-4H-pyrano[2,3-b]pyridine-4-one]
ApoA-I Promoter Induction (human ApoA-I promoter [2]): increased

Papp (Caco-2 permeability; Caco-2): 1.23 ×10⁻⁶ cm/s
SMILES: O=c1cc(-c2ccc(O)cn2)oc2ccccc12 [Example 46, 2-(5-hydroxy-pyridin-2-yl)-chromen-4-one]
change in vivo at 10 mg/kg (hApoA-I transgenic mice; [5]): 5.62% | ApoA-I Promoter Induction (human ApoA-I promoter [2]): increased

Papp (Caco-2 permeability; Caco-2): 6.48 ×10⁻⁶ cm/s
SMILES: O=c1cc(-c2ccncc2)oc2ccccc12 [Example 47, 2-pyridin-4-yl-chromen-4-one]
change in vivo at 10 mg/kg (hApoA-I transgenic mice; [5]): 22.7% | ApoA-I Promoter Induction (human ApoA-I promoter [2]): increased

melting point: 296 to 297 °C
SMILES: O=c1cc(-c2ccc(O)nc2)oc2ccccc12 [Example 48, 2-(6-Hydroxypyridin-3-yl)-chromen-4-one]
change in vivo at 10 mg/kg (hApoA-I transgenic mice; [4]): 4.94% | ApoA-I Promoter Induction (human ApoA-I promoter [2]): no increase
